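The compound was tested at five concentrations on cells cultured in 96-well plates, with a 48-hour exposure period. The concentration for 50% growth inhibition is given as GI50.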 Activity calls are given as the source filed them. No stated cut-off is given here; in the data, active = GI50 up to about 1.1 µM and inactive = higher.

The values that follow come from ChEMBL document CHEMBL1201862, “PubChem BioAssay data set” (2004).

Among the test systems are OVCAR-4; MDA-MB-435; CCRF-CEM; BT-549; HCT-15; U-251; T47D; HCT-116; COLO 205; MDA-MB-231; UO-31; 786-0; RXF 393; HOP-92; IGROV-1; SW-620; KM12; NCI/ADR-RES; NCI-H522; SNB-75.
Common to all, as to assay: inhibition of tumour cell growth, NCI panel, 48 h

Turning to `O=C(/C=C/c1ccccc1)c1cc(Br)ccc1O`, the GI50 is 15.1 µM (inactive) with OVCAR-4; 15.6 µM (inactive) in the assay with MDA-MB-435; 6.3 µM (inactive) in the assay with CCRF-CEM; 16 µM (inactive) with BT-549; 14.1 µM in the assay with HCT-15; 15.1 µM (inactive) in the assay with U-251. Moreover, the GI50 with T47D was 8.45 µM (inactive); in the assay on HCT-116 it was 16.3 µM (inactive); with COLO 205, 17.3 µM (inactive); in the assay with MDA-MB-231 it was 18 µM (inactive); in the assay on UO-31 it was 10.9 µM (inactive); with 786-0, 13.9 µM (inactive). For the same molecule, the GI50 with RXF 393 is 18.8 µM (inactive); with HOP-92, 3.15 µM (inactive); in the assay with IGROV-1, 11.5 µM (inactive); in the assay on SW-620, 21 µM (inactive); in the assay on KM12, 12 µM (inactive); with NCI/ADR-RES it was 17.5 µM (inactive). In addition, the figures for the GI50 in the assay with NCI-H522 and in the assay with SNB-75 were 12.5 µM (inactive) and 15.4 µM (inactive), respectively.

`C/C1=C\[C@H](C)C[C@H](C)OC(=O)C[C@H](c2ccc(O)cc2)NC(=O)[C@@H](Cc2c(Br)[nH]c3ccccc23)N(C)C(=O)[C@H](C)NC(=O)[C@@H](C)C1` [JASPAMIDE]: the GI50 is 0.173 µM (active) in the assay with OVCAR-4; 0.063 µM (active) with MDA-MB-435; 0.0209 µM (active) in the assay with CCRF-CEM; 0.0292 µM (active) in the assay with BT-549; 0.834 µM in the assay on HCT-15; 0.243 µM (active) in the assay with U-251. Also, the GI50 in the assay on T47D was 0.0512 µM (active); in the assay on HCT-116 it was 0.196 µM (active); in the assay on COLO 205 it was 0.207 µM (active); with MDA-MB-231, 0.0287 µM (active); with UO-31 it was 0.192 µM (active); in the assay with 786-0, 0.128 µM (active). The GI50 is 0.0369 µM (active) with RXF 393; 0.237 µM (active) with HOP-92; 0.114 µM (active) in the assay on IGROV-1; 0.152 µM (active) with SW-620; 0.264 µM (active) in the assay with KM12; 0.367 µM (active) in the assay with NCI/ADR-RES. Also, the GI50 in the assay on NCI-H522 is 0.203 µM (active); with SNB-75, 0.084 µM (active).

As for `C/C(=C\c1csc(C)n1)[C@@H]1C[C@@H]2O[C@@H]2CCC[C@H](C)[C@H](O)[C@@H](C)C(=O)C(C)(C)[C@@H](O)CC(=O)O1` [EPOTHILONE A], the GI50 in the assay on OVCAR-4 was 0.124 µM (active); in the assay with MDA-MB-435, < 0.0001 µM (active); in the assay with CCRF-CEM, < 0.0001 µM (active); in the assay on BT-549, < 0.0001 µM (active); in the assay with HCT-15 it was less than 0.0001 µM; in the assay on U-251, < 0.0001 µM (active). Also, the GI50 in the assay with T47D, in the assay with HCT-116, in the assay on COLO 205, in the assay on MDA-MB-231, in the assay with UO-31 and in the assay with 786-0 was < 0.0001 µM (active) in each case. The GI50 in the assay on RXF 393 is < 0.0001 µM (active); in the assay on HOP-92, 0.0039 µM (active); with IGROV-1, < 0.0001 µM (active); with SW-620 it was < 0.0001 µM (active); with KM12 it was < 0.0001 µM (active); in the assay on NCI/ADR-RES, 0.000113 µM (active). In addition, the GI50 in the assay on NCI-H522 and in the assay with SNB-75 was < 0.0001 µM (active) in each case.

As to `Nc1nc(OCC2CCCCC2)c2nc[nH]c2n1`, the GI50 in the assay with OVCAR-4 is 13.2 µM (inactive); with MDA-MB-435, 13.7 µM (inactive); with CCRF-CEM it was 11.2 µM (inactive); in the assay on BT-549, 13.9 µM (inactive); with HCT-15, 8.05 µM; in the assay on U-251, 16.8 µM (inactive). In addition, the GI50 in the assay on T47D was 6.98 µM (inactive); in the assay with HCT-116 it was 11.4 µM (inactive); in the assay with COLO 205, 13 µM (inactive); in the assay with MDA-MB-231 it was 25 µM (inactive); in the assay with UO-31 it was 7.18 µM (inactive); in the assay on 786-0, 17 µM (inactive). The GI50 is 9.51 µM (inactive) in the assay with RXF 393; 10.3 µM (inactive) in the assay on HOP-92; 5 µM (inactive) in the assay on IGROV-1; 23.3 µM (inactive) in the assay on SW-620; 15.7 µM (inactive) with KM12; 28.6 µM (inactive) in the assay with NCI/ADR-RES. Also, the GI50 in the assay on NCI-H522 is 9.1 µM (inactive); with SNB-75 it was 16.1 µM (inactive).

For the molecule `CC(=O)O[C@@H]1[C@H]2[C@@H](OC(=O)c3ccccc3)[C@@H](C)C[C@]2(O)[C@H](OC(C)=O)[C@@]2(C)[C@@H]3CC(C)(C)C(=O)[C@]3(OC(C)=O)C[C@@]12C`, the GI50 is > 25 µM (inactive) in the assay on OVCAR-4; 13.8 µM (inactive) with MDA-MB-435; 1.92 µM (inactive) with CCRF-CEM; > 25 µM (inactive) with BT-549; greater than 25 µM in the assay on HCT-15; > 25 µM (inactive) with U-251. Besides, the GI50 is > 25 µM (inactive) in the assay on T47D; > 25 µM (inactive) in the assay with HCT-116; 7.05 µM (inactive) in the assay with COLO 205; > 25 µM (inactive) in the assay on MDA-MB-231; 13.9 µM (inactive) in the assay with UO-31; 17.1 µM (inactive) in the assay with 786-0. Further, the GI50 was > 25 µM (inactive) in the assay with RXF 393; 8.24 µM (inactive) in the assay on HOP-92; > 25 µM (inactive) with IGROV-1; 24.3 µM (inactive) in the assay on SW-620; > 25 µM (inactive) with KM12; > 25 µM (inactive) with NCI/ADR-RES. The GI50 in the assay with NCI-H522 was > 25 µM (inactive); in the assay with SNB-75 it was 1.95 µM (inactive).

Take `O=c1nc(Oc2c(F)c(F)c(F)c(F)c2F)ccn1C1OC(CO)C(O)C1O` (stereo not given): the GI50 in the assay with OVCAR-4 was > 100 µM (inactive); in the assay with MDA-MB-435, > 100 µM (inactive); with CCRF-CEM, > 100 µM (inactive); in the assay on BT-549, > 100 µM (inactive); in the assay with HCT-15 it was greater than 100 µM; with U-251, > 100 µM (inactive). The GI50 with T47D, in the assay with HCT-116, in the assay with COLO 205, in the assay with MDA-MB-231, in the assay with UO-31 and with 786-0 was > 100 µM (inactive) throughout. For the same molecule, the GI50 in the assay with RXF 393, in the assay with HOP-92, with IGROV-1, in the assay with SW-620, with KM12 and in the assay with NCI/ADR-RES was > 100 µM (inactive) throughout. In addition, the results for the GI50 in the assay with NCI-H522 and in the assay with SNB-75 were 54.5 µM (inactive) and > 100 µM (inactive), respectively.

As to `O=C(O)C1=C/C(=C(/c2ccccc2)c2cc(C(=O)O)c(O)c3ccccc23)c2ccccc2C1=O`, the GI50 in the assay on OVCAR-4 is > 100 µM (inactive); in the assay with MDA-MB-435, > 100 µM (inactive); in the assay with CCRF-CEM, < 0.01 µM (active); with BT-549, > 100 µM (inactive); in the assay with HCT-15, greater than 100 µM; in the assay with U-251, > 100 µM (inactive). Moreover, the GI50 in the assay with T47D, in the assay with HCT-116, in the assay with COLO 205, with MDA-MB-231, in the assay on UO-31 and in the assay with 786-0 was > 100 µM (inactive) in each case. Further, the GI50 in the assay with RXF 393, with HOP-92, with IGROV-1, in the assay with SW-620, in the assay with KM12 and in the assay with NCI/ADR-RES was > 100 µM (inactive) in each case. Further, the GI50 in the assay with NCI-H522 and in the assay on SNB-75 was > 100 µM (inactive) each time.
